For one compound, IC50, inhibition and EC50 results are on record in patent US7825151B2, “Hexahydro-cyclooctyl pyrazole cannabinoid modulators” (priority 2005, dated 2010).

Test [1] addresses T1, CB2 receptor (Homo sapiens, UniProt P34972).
T1 construct: expressed in transfected cells; host or cells: SK-N-MC cells, stably transfected with pcDNA3 CB-2 (human)
The test can be described thus: Binding assay for CB2 ([3H]-CP-55,940 displacement, SK-N-MC membranes). The method, then: The human CB1 and CB2 receptors were stably expressed in SK-N-MC cells transfected with pcDNA3 CB-1 (human) or pcDNA3 CB-2 (human). The cells were grown in T-180 cell culture flasks under standard cell culture conditions at 37° C. in a 5% CO2 atmosphere. The cells were harvested by trysinization and homogenized in a homogenization buffer (10 mM Tris, 0.2 mM MgCl2, 5 mM KCl, with protease inhibitors aprotinin, leupeptin, pepstatin A and bacitracin) and centrifuged (2000 g). The supernatant was then centrifuged in 2M sucrose (31,300 g) to produce a semi-purified membrane pellet. The pellet was resuspended in homogenization and stored at −80° C.
On the day of the assay, the pellet was thawed on ice and diluted in assay buffer (50 mM Tris-HCl, 5 mM MgCl2, 2.5 mM EDTA, 0.5 mg/mL fatty acid free bovine serum albumin, pH 7.5). The diluted membrane pellet was added with buffer, either a test compound or vehicle standard and the radioligand [H]^3+-CP-55,940 (0.2 nM) to the wells of a 96-well polypropylene plate. Non-specific binding was measured in wells containing WIN 55,212 (10 uM). The plate was covered and incubated for 90 minutes at 30° C. The contents were then aspirated onto a Packard Unifilter GF/C filter bottom plate prewet with 0.5% polyethyleneimine. The wells of the polypropylene plate were rinsed and aspirated seven times with a 0.9% saline-0.5% Tween 20 solution. The Unifilter plate was dried, scintillation cocktail was added to each well and the counts representing binding were quantitated in a TopCount scintillation counter.
For compounds tested, an IC50 binding value was obtained from percent inhibition studies in which various test concentrations were used. The binding value was calculated by linear regression.
For compounds without an IC50 binding value, the percent inhibition (%) was obtained at a test concentration of ^(1)10 μM, ^(2)1 μM, ^(3)0.2 μM, ^(4)0.003 μM, ^(5) represents an average value.

The target in test [2] is T1, CB2 receptor. The test can be described thus: Functional cell-based CRE β-gal assay, CB2 (adenylate cyclase activity). The text has this: The CB1 and CB2 receptors are G-protein coupled receptors (GPCR), which influence cell function via the Gi-protein. These receptors modulate the activity of intracellular adenylate cyclase, which in turn produces the intracellular signal messenger cyclic-AMP (cAMP).
At baseline, or during non-ligand bound conditions, these receptors are constitutively active and tonically suppress adenylate cyclase activity. The binding of an agonist causes further receptor activation and produces additional suppression of adenylate cyclase activity. The binding of an inverse agonist inhibits the constitutive activity of the receptors and results in an increase in adenylate cyclase activity.
By monitoring intracellular adenylate cyclase activity, the ability of compounds to act as agonists or inverse agonists can be determined.
Test compounds were evaluated in SK-N-MC cells which, using standard transfection procedures, were stably transfected with human cDNA for pcDNA3-CRE β-gal and pcDNA3 CB1 receptor (human) or pcDNA3 CB2 receptor (human). By expressing CRE β-gal, the cells produced β-galactosidase in response to CRE promoter activation by cAMP. Cells expressing CRE β-gal and either the human CB1 or CB2 receptor will produce less β-galactosidase when treated with a CB1/CB2 agonist and will produce more β-galactosidase when treated with a CB1/CB2 inverse agonist.
The cells were grown in 96-well plates under standard cell culture conditions at 37° C. in a 5% CO2 atmosphere. After 3 days, the media was removed and a test compound in media (wherein the media was supplemented with 2 mM L-glutamine, […] sodium pyruvate, 0.1% low fatty acid FBS (fetal bovine serum) and antibiotics) was added to the cell. The plates were incubated for 30 minutes at 37° C. and the plate cells were then treated with forskolin over a 4-6 hour period, then washed and lysed. The β-galactosidase activity was quantitated using commercially available kit reagents (Promega Corp. Madison, Wis.) and a Vmax Plate Reader (Molecular Devices, Inc).
For cells expressing CRE β-gal and the CB2 receptor, CB2 agonists reduced β-galactosidase activity in a dose-dependent manner and CB2 inverse agonists increase β-galactosidase activity in a dose-dependent manner.
The change in β-galactosidase activity was determined by setting a vehicle treated cell's activity value at 100% and expressing the β-galactosidase activity measured in a corresponding compound treated cell as a percent of the vehicle treated cell activity.
The EC50 value for functional activity for compounds tested was calculated by linear regression and was obtained from studies in which varying compound concentrations were used.
The value of 29% for Compound 5 represents change in functional activity and was obtained from a study in which one compound concentration was used.

By IC50 is commonly meant the midpoint of a concentration-inhibition curve. Low values mean higher potency, high ones lower potency. By inhibition is commonly meant the share of the control response that was lost under treatment. The EC50 is the concentration giving half of the maximal effect. Low values mean an effect from little substance, high ones a need for much substance.

Several values for one entry are separate records, joined by “and”; a condition that tells them apart may be missing. Equal entries are not always repeated.

T1 sequence (P34972 whole entry): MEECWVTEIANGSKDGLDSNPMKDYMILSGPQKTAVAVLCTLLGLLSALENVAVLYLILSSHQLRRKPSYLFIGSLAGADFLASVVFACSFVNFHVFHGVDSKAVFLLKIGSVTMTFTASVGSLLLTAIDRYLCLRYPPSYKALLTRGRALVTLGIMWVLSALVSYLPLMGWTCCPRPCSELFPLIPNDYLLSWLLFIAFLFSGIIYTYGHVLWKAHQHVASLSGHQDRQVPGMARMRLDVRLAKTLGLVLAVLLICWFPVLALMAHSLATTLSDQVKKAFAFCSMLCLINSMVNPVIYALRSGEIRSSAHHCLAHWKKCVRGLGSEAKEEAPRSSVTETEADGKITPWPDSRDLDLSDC

`O=C(NCC12CC3CC(CC(C3)C1)C2)c1nn(C2CCCCC2)c2c1CCCCCC2` [Cpd 2, 1-cyclohexyl-4,5,6,7,8,9-hexahydro-1H-cyclooctapyrazole-3-carboxylic acid (adamantan-1-ylmethyl)-amide]: the IC50 on CB2 receptor [1] (Cannabinoid CB2 Receptor Binding IC50, radioligand CP-55,940 0.2 nM, SK-N-MC membranes) is 1 nM and 6 nM and 10 nM. Besides, the inhibition at 0.003 µM at CB2 receptor [1] (read-out: CB2 receptor binding percent inhibition) amounted to 86%. At CB2 receptor [2], the EC50 is 6.6 nM.
